# Tests used:
# [1] = tested on: phospho-NFκB; assay: Western blotting onto NFκB and phospho-NFκB in JFH-1 infected Huh 7.5.1 cells; format: cell-based; conditions: 100 μM, 72 hours
# Excerpt: Conducted western blotting onto NFκB and phospho-NFκB which are transcription factors of virus suppression mechanism of ginsenosides to a hepatoma cell line.
# Specifically, it is known that when cells are infected with hepatitis C viruses, TNF-α in the cells increases and, apoptosis actions in the cells increases due to an anti-apoptotic factor, NFkB decreases. Additionally, identification of phosphor-NFκB among NFκB (total) is important to know activation level of NFκB.
# Herein, western blotting analysis onto NFκB and phospho-NFκB, transcription factors, was carried out to identify the TNF-α mediated apoptotic signaling pathway. The TNF-α is induced by Hepatitis C. The analysis was conducted 72 hours after the samples of Huh 7.5.1 cells treated with each 100 μM of seven ginsenosides (Ro, Re, Rg1, Rg2, Rg3, Rh1, Rh2) as above stated in Example 3.
# Specifically, the western blotting analysis was carried out as follow. First, the above described samples were prepared, mixed with a sample buffer in tubes and heated at 100° C. for 10 minutes. The tubes were cooled on ice and centrifuged. The electrophoresis was carried out with the prepared samples and molecular weight markers were put in. And then, they were transferred to a PVDF membrane (hydrophobic). After blocking with 5% skin milk for an hour, primary antibodies of NFκB and phospho-NFκB were added. […]
# [2] = tested on: JFH-1 virus infected Huh 7.5.1 cell; assay: MTT assay, cytotoxicity of ginsenosides on liver cancer cell line; format: cell-based; conditions: 10, 25, 50 and 100 μL concentration (so in the source), 72 hours
# Protocol: MTT assay was conducted to identify cytotoxicity of ginsenosides.
# Specifically, the cells (Huh7.5.1) were seeded at the rate of 1×10^4 cells (in 100 μL)/well in 96 well plates, and incubated in 5% CO2 incubator for less than 24 hours. And after the samples were washed with 1×PBS once and treated with the rate of 50 ul JFH-1 virus/well, and replaced in the 5%, CO2 incubator for six hours. After taking out the cell samples from the incubator, the samples were washed with 1×PBS once and replaced in the culturing media comprising 10, 25, 50 and 100 μL concentration of the above stated seven (7) ginsenosides in Example 3, respectively. After the cells were incubated in 5% CO2 incubator for 72 hours, 20 μl of assay reagent, EZ Cytox, was seeded into each well with the care of no bubble producing. And then, the treated cells were incubated in 5% CO2 incubator for 2.5 hours, followed by examining absorbance at 420 nm with Microplate Reader (Molecular Devices, Minn.). DMSO was the solvent used when treating with ginsenoside, and both the control group and the cells infected with JFH-1 group were also treated with the solvent DMSO.
# [3] = biological target: T1, HCV NS3/4A protease (Hepatitis C virus genotype 2a, UniProt Q99IB8); assay: HCV NS3/4A protease activity (HCV Protease Assay kit, ANASPEC); format: biochemical
# T1 construct: Diluted HCV NS3 protease to an appropriate concentration in assay buffer; expressed in transfected cells; host or cells: HCV replicon-containing Huh7 cells (membrane fractions)
# T1 sequence (Q99IB8 1031-1661): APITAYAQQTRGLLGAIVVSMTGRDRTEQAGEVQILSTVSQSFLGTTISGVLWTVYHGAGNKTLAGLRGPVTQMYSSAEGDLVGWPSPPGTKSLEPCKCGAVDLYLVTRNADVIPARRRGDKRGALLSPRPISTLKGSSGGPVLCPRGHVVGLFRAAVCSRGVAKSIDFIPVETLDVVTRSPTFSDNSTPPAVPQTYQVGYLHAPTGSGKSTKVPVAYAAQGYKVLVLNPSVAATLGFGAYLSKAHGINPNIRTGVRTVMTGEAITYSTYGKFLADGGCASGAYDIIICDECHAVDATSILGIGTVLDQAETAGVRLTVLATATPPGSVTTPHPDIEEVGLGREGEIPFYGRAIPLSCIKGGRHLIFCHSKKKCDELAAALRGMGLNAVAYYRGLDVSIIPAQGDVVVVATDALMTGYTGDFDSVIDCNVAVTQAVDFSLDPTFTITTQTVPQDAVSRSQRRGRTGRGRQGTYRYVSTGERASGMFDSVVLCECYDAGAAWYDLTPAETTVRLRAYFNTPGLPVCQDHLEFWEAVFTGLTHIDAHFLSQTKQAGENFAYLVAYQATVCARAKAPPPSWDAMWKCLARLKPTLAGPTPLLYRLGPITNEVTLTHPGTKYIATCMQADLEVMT
# T1 sequence (Q99IB8 1662-1715): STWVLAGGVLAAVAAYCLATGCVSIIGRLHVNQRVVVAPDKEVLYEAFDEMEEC
# Protocol: HCV Protease Assay kit (ANASPEC) was used to the following experiments. The components, description and quantity were as follows:
# Diluted HCV protease substrate (Component A) 1:50 in assay buffer.
# Diluted HCV NS3 protease to an appropriate concentration in assay buffer.
# b) Mixed an equal volume of the HCV NS3 protease diluent and Pep4AK diluent. Incubated the mixture at 23-25° C. for 15 min.
# The HCV replicon-containing cells (e.g. 1×10^7-10^8 Huh7 cells) grew to 90% confluence. The cells were washed with 1× phosphate-buffered saline once, and then the cells were detached by scraping. The cell pellets were harvested by centrifuging at 900×g for 10 min at 4° C. The cell pellets were resuspended with 1 mL of hypotonic buffer (10 mM Tris-HCl, pH 7.8, 10 mM NaCl), and then the cell pellets were incubated on ice for 15-20 min. The cell pellets were disrupted with 50 strokes of a tight fitting pestle in a Dounce homogenizer. The homogenate was centrifuged at 900×g for 5 min at 4° C. to remove the nuclei, which was in the pellet. […]
# For kinetics reading: Immediately started measuring fluorescence intensity at Ex/Em=490 nm/520 nm continuously and recorded data every 5 min for 30 to 60 min.
# For end-point reading: Incubated the reaction at room temperature for 30 to 60 minutes. […] Then measured fluorescence intensity at Ex/Em=490 nm/520 nm.
structure (smiles),measurement,setting,value
CC(C)=CCC[C@](C)(O)[C@H]1CC[C@]2(C)[C@@H]1[C@H](O)C[C@@H]1[C@@]3(C)CC[C@H](O[C@@H]4O[C@H](CO)[C@@H](O)[C@H](O)[C@H]4O[C@@H]4O[C@H](CO)[C@@H](O)[C@H](O)[C@H]4O)C(C)(C)[C@@H]3CC[C@]12C [ginsenoside Rg3],apoptosis of cells,[1],remarkably decreased
same,cytotoxicity (MTT assay),[2],no cytotoxicity
same,NS3/4 protease activity,[3],inhibited
same,"NS3/4 protease activity, dose dependence",[3],dose-dependent manner

# — patent publication US8865659B2, “Compositions for prevention or treatment of Hepatitis C virus containing ginsenoside Rg3 as an active ingredient” (priority 2012, dated 2014)
